Data set [1] can be described thus: In vitro metabolic stability in human plasma. Format: in vitro ADME. As to conditions: human, plasma; 37°C, compound 10 μM; read-out: Human plasma T1/2. Here is the method:
The two reaction systems were set up three samples in parallel, while each sample was taken in an amount of 100 μL at 1 min, 2 mins, 5 mins, 15 mins, and 30 mins after the reaction, added to the centrifuge tube containing 400 μL of 0° C. pre-cooled internal standard working fluid and terminated the reaction. The sample was mixed by vortex for 1 min, centrifuged at 10,000×g for 10 mins in a 4° C. pre-cooled high-speed centrifuge. The supernatant was taken for HPLC detection.

The nature of data set [2]: In vitro metabolic stability in rat intestinal S9. As to conditions: rat, intestinal S9, pH 7.4; 37°C, S9 1 mg/mL, compound 10 μM, NADPH regeneration system; read-out: Rat intestinal S9 T1/2. The format is in vitro ADME.

As to `CC(OC(=O)SCCO)[n+]1cnn(C[C@](O)(c2ccc(F)cc2F)[C@@H](C)c2ncncc2F)c1` (some centres unmarked) [Compound 16037], the half-life at 10 µM came out at 7.75 ± 0.56 min in data set [1] and 16 ± 6.88 min in data set [2].

Values taken from patent publication US11040958B2, “Triazole antimicrobial derivative, pharmaceutical composition and use thereof” (priority 2017, dated 2021).
